From patent US20240261267A1, “METHODS FOR TREATING MULTIPLE SCLEROSIS” (Vanda Pharmaceuticals Inc., priority 2021, published 2024)

Test system: primary mouse OPCs
Test: agarose drop migration assay
Format: cell-based
Conditions: any of the concentrations tested (0.3 nM to 3000 nM); after 5 days
Experimental: The effects of ponesimod, a selective S1P1 receptor agonist, and A971432, a selective S1P5 receptor agonist, on oligodendrocyte precursor cell (OPC) migration and differentiation were evaluated. Nine concentrations were tested (logarithmic dilutions ranging from 0.3 nM to 3000 nM, n=6 per concentration). Fingolimod phosphate (P-FTY720, 3000 nM, n=6) was included as a positive control, 0.1% DMSO was included (min.one/plate) as a negative control. Primary mouse OPCs were harvested on postnatal day 0 or 1 and mixed glia cultures were maintained for 14 days. Primary OPCs were then purified using the shake-off method, and used for either a migration assay, or a differentiation assay, as detailed below. To harvest primary mouse OPCs, cortices are isolated from mouse pups on postnatal day 0 or 1 and placed in ice-cold Dulbecco's Modified Eagle Medium (DMEM) (Sigma Aldrich, Overijse, BE). The cortices are homogenized and centrifuged for 5 minutes at 300 G. The supernatant is removed, and a papain solution is added for 30 minutes (125 uL DMEM solution per brain containing 20 units/ml papain and 40 μg/ml DNase, at 37 degrees). Digestion is inactivated by adding 9 ml cold DMEM. The solution is then centrifuged for 5 minutes at […]. The supernatant is carefully removed, and the pellet is resuspended in 2-5 ml culture medium (DMEM with 10% fetal calf serum (Biowest, Nuaillé, FR) and 1% pen/strep (Sigma Aldrich, Overijse, BE)). […] Cell suspension is divided over PLL (Sigma Aldrich, Overijse, BE)-coated flasks (2 brains per flask) and DMEM is added to a final volume of 10 ml. DMEM is replaced on day 4, 7, and 11. On day 7 and 11, insulin (Sigma Aldrich, Overijse, BE) is added to the medium (5μg/ml). On day 14, OPCs are separated from astrocytes by the shake-off method: flasks are placed on a shaker for 45 minutes at 75 rpm (37 degrees). […] The extent of cell migration is then measured after 5 days using Incucyte imaging analysis and fluorescent endpoint staining. For each well, the 15-20 cells that migrated the furthest away from the agarose drop are measured and averaged. […]

## CCC/N=C1\S/C(=C\c2ccc(OC[C@H](O)CO)c(Cl)c2)C(=O)N1c1ccccc1C [ponesimod, (R)-5-[3-chloro-4-(2,3-dihydroxy-propoxy)-benz[Z]ylidene]-2-([Z]-propylimino)-3-o-tolyl-thiazolidin-4-one]
  migration distance: did not affect migration distance

## O=C(O)C1CN(Cc2ccc(OCc3ccc(Cl)c(Cl)c3)cc2)C1 [A97]
  migration distance: did not affect migration distance
